From article PMC7590976, “Detection of Active Granzyme A in NK92 Cells with Fluorescent Activity-Based Probe” (Journal of Medicinal Chemistry, 2020)
“And” between values parts separate entries of the source, which are not always exact repeats. Identical values can stand only once. “Also recorded” adds a separate entry of the source. Non-standard residues stand in square brackets, D forms with d. *: point of attachment. Oic = O=C(O)[C@@H]1C[C@@H]2CCCC[C@@H]2N1; ACC = NC(=O)Cc1cc(=O)oc2cc(N*)ccc12; Tic = O=C(O)[C@@H]1Cc2ccccc2CN1

Columns and labels:
proteinase 3 (PR3) = assay: Selectivity of SK15 substrate toward PR3; assay type: biochemical; settings: Figure S2: substrate 67 µM, 3.4 nM PR3
Text: (§1) Since GrA and GrK are the most structurally similar Grs, they may recognize and hydrolyze the same natural and synthetic substrates. Therefore, we tested whether our new GrA substrates are also recognized by GrK or GrB (Figure 3A). For this experiment, we screened substrates SK8 to SK28 and a GrKref substrate (Ac-Tyr-Arg-Phe-Lys-ACC) or GrBref substrate (Ac-Ile-Glu-Pro-Asp-ACC) at the same concentration using a plate reader, and we monitored the increase in fluorescence over time. The linear portions of the diagram were analyzed, and as we expected, the majority of the substrates were well recognized by GrK, even better than their recognition by GrA. […] Based on that, we concluded that Tic-Gly-Oic-Arg is a leading sequence for a specific potent inhibitor and ABP for GrA.
(§2) Figure S2. Selectivity of SK15 substrate toward selected serine proteases (GrA, GrB, GrM, GrK,
(§3) PR3, and hNE). The reference substrates were as follows: Ac-Ile-Gly-Pro-Arg-ACC for GrA, Ac -Tyr-
(§4) Arg-Phe-Lys-ACC for GrK, Ac-Ile-Glu-Pro-Asp-ACC for GrB, Ac-Lys-Val-Pro-Leu-ACC for GrM,
(§5) Ac-Glu(O-Bzl)-Lys(Ac)-Hyp(Bzl)-Nva-ACC for PR3 and Ac-Arg(NO)2-Glu(Bzl)-Oic-Abu-ACC for hNE.
(§6) Substrates were placed in a 96-well plate at a concentration of 67 µM and treated with optimal
(§7) and emission wavelengths. Data present the average of 2 replicates as adjusted RFU/s.
(§8) Figure S3. Detection of active GrA in NK92 cells. […]

GrB = target: T1, GrB (Homo sapiens, UniProt P10144); assay: GrA substrate selectivity testing on GrB; assay type: biochemical; settings: substrate 200 μM (Fig 3A) or 67 μM, 18 nM GrB
T1 construct: made in house; host or cells: Pichia pastoris
T1 sequence (P10144 21-247): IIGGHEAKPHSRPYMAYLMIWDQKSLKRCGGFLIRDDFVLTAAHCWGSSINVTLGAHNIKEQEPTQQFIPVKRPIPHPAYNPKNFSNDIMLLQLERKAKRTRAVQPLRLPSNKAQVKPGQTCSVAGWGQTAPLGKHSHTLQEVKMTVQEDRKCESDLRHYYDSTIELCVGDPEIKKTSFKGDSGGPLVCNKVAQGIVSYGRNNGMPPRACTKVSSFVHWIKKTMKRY
Text: as §1
(§9) Figure 3 (A) GrA substrate selectivity testing on GrK and GrB. Substrates SK8–SK28 and the reference GrK and GrB substrates were placed in a 96-well plate at a concentration of 200 μM and treated with GrK or GrB. […] Data present the average of 2 replicates as adjusted RFU/s.
as §2, §3, §4, §5, §6, §7
Figure S3. Detection of active GrA in NK92 cells.
(also on this page, place not known: S K15 hNE) . Ac-Tyr- -Arg(NO)2-Glu(Bzl)-Oic-Abu-ACC ( 89 G rA cell s. reference reference SK15 reference SK15 reference SK15 reference SK15 reference SK15 0 50 100 substrate turnover, %RFU/s PR3GrMGrBGrK hNEGrA SK15 selectivity) […]

GrA [1] = assay: Screening of individual substrates SK7–SK28 with GrA; assay type: biochemical, human; settings: Figure 2A: substrate 1 μM, 89 nM enzyme (method b64: 67 μM, 583 nM GrA); adjusted RFU/s, average of 2 replicates
Text: Data present the average of 2 replicates as adjusted RFU/s. (B) Comparison of SK7 (blue) and SK15 (red) structures.

granzyme M (GrM) = assay: Selectivity of SK15 substrate toward GrM; assay type: biochemical, human; settings: Figure S2: substrate 67 µM, 74 nM GrM
Text: as §1, §2, §3, §4, §5, §6, §7, §8

GrK = target: T2, GrK (Homo sapiens, UniProt P49863); assay: GrA substrate selectivity testing on GrK; assay type: biochemical; settings: 488 nM GrK
T2 construct: made in house; host or cells: Pichia pastoris
T2 sequence (P49863 27-264): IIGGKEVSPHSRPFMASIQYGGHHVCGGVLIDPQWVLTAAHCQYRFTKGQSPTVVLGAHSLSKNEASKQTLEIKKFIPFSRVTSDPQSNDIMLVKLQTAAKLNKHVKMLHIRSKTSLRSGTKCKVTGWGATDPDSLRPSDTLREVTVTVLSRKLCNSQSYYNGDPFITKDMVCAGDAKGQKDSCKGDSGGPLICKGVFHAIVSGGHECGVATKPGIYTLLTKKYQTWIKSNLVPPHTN
Text: as §1, §9, §2, §3
Arg-Phe-Lys-ACC for GrK, Ac-Ile-Glu-Pro-Asp-ACC for GrB, Ac-Lys-Val-Pro-Leu-ACC for GrM, […]

[2] = tested on: human neutrophil elastase (hNE); assay: Selectivity of SK15 substrate toward hNE; assay type: biochemical; settings: Figure S2: substrate 67 µM, 3.3 nM hNE
Text: as §1, §2, §3, §4, §5, §6, §7, §8

GrA [3] = target: T3, GrA (Homo sapiens, UniProt P12544); assay: Steady-state Michaelis–Menten kinetics of fluorogenic ACC substrates with GrA; assay type: biochemical
T3 construct: made in house; host or cells: Pichia pastoris
T3 sequence (P12544 29-262): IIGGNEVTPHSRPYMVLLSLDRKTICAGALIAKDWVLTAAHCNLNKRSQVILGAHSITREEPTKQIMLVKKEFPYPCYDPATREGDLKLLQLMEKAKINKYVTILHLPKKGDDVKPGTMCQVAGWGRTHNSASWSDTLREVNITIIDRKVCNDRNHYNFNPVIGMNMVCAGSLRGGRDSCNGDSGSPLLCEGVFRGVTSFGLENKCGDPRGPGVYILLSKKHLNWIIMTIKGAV
Text: All chemical and biological reagents were purchased from commercial suppliers and used without further purification. The following reagents for solid phase peptide synthesis, Rink Amide RA resin (particle size 200–300 mesh, loading 0.74 mmol/g), 2-chlorotrityl chloride resin, Fmoc-protected amino acids, biotin, 1-[bis(dimethylamino)methylene]-1H-1,2,3-triazolo[4,5-b] pyridinium 3-oxid hexafluorophosphate (HATU), piperidine, diisopropylcarbodiimide (DICI), and trifluoroacetic acid (TFA), were purchased from Iris Biotech GmbH (Marktredwitz, Germany); anhydrous N-hydroxybenzotriazole (HOBt, purity >98%) was purchased from Creosauls; 2,4,6-collidine (2,4,6-trimethylpyridine), HPLC pure acetonitrile, and triisopropylsilane (TIPS) were purchased from Sigma-Aldrich (Poznan, Poland); and N,N-diisopropylethylamie (DIPEA) was purchased from VWR International (Gdansk, Poland). Solvents such as N,N-dimethylformamide (DMF), dichloromethane (DCM), methanol (MeOH), diethyl ether (Et2O), and acetic acid (AcOH) were purchased from Avantor (Gliwice, Poland). Cy5 was purchased from Lumiprobe GmbH (Hannover, Germany). Human neutrophil elastase was purchased from BioCentrum (Kraków, Poland) and proteinase 3 from Athens Research Technology (Athens, USA). Anti-GrA antibody (rabbit, monoclonal, ab209205) was obtained from Abcam (Cambridge, Great Britain). All cell lines were purchased from DSMZ (Braunschweig, Germany) or ATCC (Manassas, USA). All kinetic assays were performed using a Spectra Max Gemini XPS spectrofluorometer (Molecular Devices) on 96-well Corning plates. The parameters of the process were as follows: 37 °C; excitation/emission wavelength, 355/460 nm; cutoff, 455 nm; varying concentrations of substrates and enzyme. All measurements were performed in duplicate, and the data represent the average of these repetitions

[4] = GrA 93 nM, assay buffer pH 7.5, 37 °C, ACC fluorescence 355/460 nm

Substance: Ac-[Tic]G[Oic]R-{ACC} (SMILES CC(=O)N1Cc2ccccc2C[C@H]1C(=O)NCC(=O)N1[C@H](C(=O)N[C@@H](CCCNC(=N)N)C(=O)Nc2ccc3c(CC(N)=O)cc(=O)oc3c2)C[C@@H]2CCCC[C@@H]21) [SK15]
- recognition by PR3 (in words) (proteinase 3 (PR3)): not recognized
- hydrolysis by GrB (in words) (GrB): inactive; also recorded: not recognized
- hydrolysis of individual substrate by GrA (in words) (GrA [1]): most active substrate
- recognition by GrM (in words) (granzyme M (GrM)): not recognized
- hydrolysis by GrK (GrK; Figure 3A and S2, substrate 200 μM (Fig 3A) or 67 μM (Fig S2), adjusted RFU/s, 2 replicates): 20%
- hydrolysis by GrK (in words) (GrK; substrate 200 μM (Fig 3A) or 67 μM): barely hydrolyzed
- recognition by hNE (in words) [2]: not recognized
- kcat (GrA [3]; [4]): 0.27 ± 0.0029 s⁻¹
- kcat/KM (GrA [3]; [4]): 3100 M^–1 s^–1 and 3100 ± 80 s^–1 M^–1
- Km (GrA [3]; GrA 93 nM, substrate 1000–7.81 μM, 50 mM Tris, 100 mM NaCl, 5 mM CaCl2, 0.01% Tween-20, pH 7.5, 37 °C, ACC fluorescence 355/460 nm, Michaelis–Menten nonlinear regression, duplicate): 87.4 ± 1.3 µM
- GrA activity against the substrate relative to the reference sequence SK7 (GrA [3]; ratio to SK7): approximately 40 fold
